Results on two molecules are retold here after patent publication US20260306403A1, “MODIFIED LIPOSOME FOR DRUG DELIVERY, USE OF LIPOSOME FOR DRUG DELIVERY, ESPECIALLY WITH ANTI-CANCER ACTIVITY, AND WAYS TO LOAD LIPOSOME WITH DRUGS, ESPECIALLY WITH ANTI-CANCER ACTIVITY” (BS BIOTECHNA SPOLKA AKCYJNA, priority 2023, published 2026).

The conditions of data set [1]: phase I and II clinical trials; cited from earlier work.
The nature of data set [2]: Acute toxicity test on Zebrafish larvae, emetine and 14 pH EM liposomes, 24 and 48 h. The following applies: in vivo, 48 h exposure, 2 dpf larvae, calculated for emetine, read-out: half maximal lethal concentration (LC50). On the set-up: species or system Zebrafish (Danio rerio). Here is the method: In order to compare the toxicity of emetine and 14 pH EM liposomes with emetine, an acute toxicity test was conducted on Zebrafish (Danio rerio). The test was designed to determine the acute or lethal toxicity of the formulations on the embryonic stages of the fish. Briefly, Zebrafish 2 dpf larvae were treated with emetine and 14 pH EM liposomes with emetine for 24 and 48 hours at concentrations ranging from 0.73 μM to 125 μM calculated for emetine. […] The water for embryo culture and solution preparation was embryo culture medium (E3 solution: 5 mmol/L NaCl, 0.17 mmol/L KCl, 0.33 mmol/L CaCl2 and 0.33 mmol/L MgSO4, containing no methylene blue, and with a pH value of approximately 7.2). The experiment was carried out in 24-well plates, 5 embryos per well, 10 per group. The plate was covered and kept in an incubator set at 28±0.5° C. with a light/dark period of 12/12 hours. During the exposure period, larvae were tracked every 24 hours and four visual observations, including coagulation of fertilised eggs, lack of somite formation, lack of separation of tail bud from yolk sac and lack of heartbeat, were recorded as indicators of mortality.

For a further data set, the system named is Zebrafish larvae. The experiment in a line: Absorption of fluorescently labelled emetine, free and in pH-type liposomes, by Zebrafish larvae. In kind it is in vivo. On the procedure: To compare the uptake of emetine and pH-type liposomes with emetine, Zebrafish larvae were exposed to fluorescently labelled free emetine and fluorescently labelled emetine encapsulated in pH-type liposomes (synthesis identical to that of 14pHEM) for 4 and 48 h in a concentration range from 0.73 μM to 14.7 μM for emetine and 4.41 μM to 8.82 μM for pH-type liposomes with fluorescent emetine per emetine. Photographs of fish from each group were taken at the final time point to monitor the intensity of fluorescence from absorbed emetine. A Discovery V8 stereoscopic optical microscope and Zeiss equipment were used for the observations.

A short description of data set [3]: Acute toxicity test on Zebrafish larvae, emetine / BEM and staurosporine / BST liposomes, 96 h. The data set is classed as in vivo, Zebrafish (Danio rerio). The conditions noted are these: 96 h incubation, staurosporine free or in BST. Here is the method:
In order to compare the toxicity of emetine and staurosporine with the same drugs loaded into BpH liposomes, an acute toxicity test was conducted on Zebrafish (Danio rerio). The test was designed to determine the acute or lethal toxicity of the chemicals on the embryonic stages of the fish. Briefly, zebrafish larvae were treated with emetine and […] liposomes or staurospoine and staurosporine with BST liposomes for a period of 96 hours.
The embryo culture fluid and solution preparation was embryo culture medium (E3 solution: 5 mmol/L NaCl, 0.17 mmol/L KCl, 0.33 mmol/L CaCl2 and 0.33 mmol/L MgSO4, containing no methylene blue, and with a pH value of approximately 7.2). The experiment was carried out in 24-well plates, 5 embryos per well, 10 per group. The plate was covered and kept in an incubator set at 28±0.5° C. with a light/dark period of 12/12 hours. During the exposure period, larvae were tracked every 24 h and four visual observations, including coagulation of fertilised eggs, lack of somite formation, lack of separation of tail bud from yolk sac and lack of heartbeat, were recorded as indicators of mortality. At the end of the exposure period (96 hpf), acute toxicity was determined based on a positive result from any of the four recorded visual observations and the LC50 was calculated. Liposomes alone without drug loading were also tested.

Consider `CC[C@H]1CN2CCc3cc(OC)c(OC)cc3[C@@H]2C[C@@H]1C[C@H]1NCCc2cc(OC)c(OC)cc21` [emetine], for which, in data set [1], the therapeutic index result is recorded as “very limited” and the “toxicity on increasing the dose” value was “cardiac toxicity”. For the same molecule, the LC50 at 48 h in data set [2] was 5640 nM. Besides, the “location of absorbed emetine in larvae” value with Zebrafish larvae (fluorescence microscopy) is “within the yolk of the larvae, especially in the liver and intestine region”. Also, the “uptake / amount of absorbed emetine” value in the data set on Zebrafish larvae (free 1.47, 3.67, 7.35 μM, in liposomes 4.41 and 8.82 μM) is “increases with dose”.
`CN[C@@H]1C[C@H]2O[C@@](C)([C@@H]1OC)n1c3ccccc3c3c4c(c5c6ccccc6n2c5c31)C(=O)NC4` [staurosporine] had an LC50 at 96 h in data set [3] of 17 nM.
